Reference: patent US11173140B2, “Dosing regimens of PKC activators” (COGNITIVE RESEARCH ENTERPRISES, INC., priority 2015, dated 2021)

Legend:
PSD-95 = experiment: Brain PSD-95 by Western Blot after i.v. bryostatin dosing regimens; type: in vivo, mice; settings: for PSD-95 (% of Control): mouse brain, 1 h after last dose
Protocol: The dose of bryostatin administered is reflected by the number above each bar, while the number within each bar indicates the number of consecutive weeks mice receive a single weekly dose of bryostatin. Control mice were injected with vehicle. PSD-95 was measured in mouse brain by Western Blot 1 h after the last dose. (Mean±SEM, n=3 except Cage 23 n=2, 2-tailed t-test).
Mouse studies were performed using bryostatin-i in accordance with the protocol described below. The following metrics were used to evaluate dosing regimens: induction of brain postsynaptic anchoring protein PSD-95, upregulation of BDNF levels in brain, minimal downregulation of PKC-ε levels, and elevation of brain and plasma concentrations of bryostatin. Groups of 2-3 mice were formed and housed in an approved research animal facility. Water was give ad libitum. A first study involved three groups of mice with animals in each group dosed weekly for 1, 2, 3, or 6 consecutive weeks. Each group had its own control group containing the same number of mice. In this study, mice in the first, second and third groups received an intravenous (i.v.) injection of 10 μg/m^2, 15 μg/m^2, and 25 μg/m^2 dose of bryostatin respectively. For each dose, mice in that group received a single injection of bryostatin weekly for predetermined number of consecutive weeks. Following dosing, mice were sacrificed and the blood and brain of each animal was collected for further analysis.
Cells were harvested in homogenizing buffer containing 10 mM Tris-Cl (pH 7.4), 1 mM PMSF (phenylmethylsulfonyl fluoride), 1 mM EGTA, 1 mM EDTA. 50 mM NaF, and 20 μM leupeptin and were lysed by sonication. The homogenate was centrifuged at 100,000×g for 15 min at 4° C. to obtain the cytosolic fraction (supernatant) and membrane (pellet). The pellet was resuspended in the homogenizing buffer by sonication. Protein concentration was measured using the Coomassie Plus (Bradford) Protein Assay kit (Pierce, USA). Following quantification, 20 μg of protein from each sample was subjected to SDS-PAGE analysis in 4-20% gradient Tris-Glycine gel (Invitrogen, USA). The separated protein was then transferred to nitrocellulose membrane. The membrane was blocked with BSA at room temperature for 15 min and was incubated with primary antibody over night at 4° C. After the incubation, it was washed three times with TBS-T (Tris Buffered saline-Tween 20) and further incubated with alkaline phosphatase conjugated secondary antibody (Jackson Immunoresearch Laboratories. USA) at 1:10,000 dilution for 45 min. The membrane was finally washed three times with TBS-T and developed using the 1-step NBT-BCIP substrate (Pierce, USA). Western Blot was imaged in the Image Quant RT-ECL (GE Life Sciences, Piscataway, N.J.) and densitometric quantification was performed using the IMAL software (Blanchette Rockefeller Neurosciences institute, Morgantown, W. Va.). For translocation assays, PKC activation was represented as the percentage of total protein in the membrane (membrane/cytosol+membrane).
C57B/6 male mice weighing between 19-21 grams were obtained from Charles River and housed in cages, 1 mouse/cage in a vivarium at the Blanchette Rockefeller Neurosciences institute. Animals were allowed access to water ad libitum.
In these studies, bryostatin was administered intravenously (i.v.) by injection into the tail vein of a mouse. Stock solutions of bryostatin were prepared in dimethyl sulfoxide (DMSO). Prior to administration to a mouse, the stock DMSO solution of bryostatin was diluted to a predetermined concentration by dilution with phosphate buffered saline/saline (PBS/saline).
Three different dosing regimens (injection schedules) were compared. The dosing regimens tested were weekly dosing, dosing every other week (alternating weeks), and spaced or intermittent dosing. […]

PKC-ε = target: T1, PKC-ε (Homo sapiens, UniProt Q02156); experiment: Compassionate use study: PKC-ε level in blood; type: in vivo; settings: advanced AD patient blood, weekly dose of 25 μg/m^2, three consecutive weeks
T1 construct: from tissue; host or cells: blood of a human advanced Alzheimer's disease patient
T1 sequence (Q02156 1-737): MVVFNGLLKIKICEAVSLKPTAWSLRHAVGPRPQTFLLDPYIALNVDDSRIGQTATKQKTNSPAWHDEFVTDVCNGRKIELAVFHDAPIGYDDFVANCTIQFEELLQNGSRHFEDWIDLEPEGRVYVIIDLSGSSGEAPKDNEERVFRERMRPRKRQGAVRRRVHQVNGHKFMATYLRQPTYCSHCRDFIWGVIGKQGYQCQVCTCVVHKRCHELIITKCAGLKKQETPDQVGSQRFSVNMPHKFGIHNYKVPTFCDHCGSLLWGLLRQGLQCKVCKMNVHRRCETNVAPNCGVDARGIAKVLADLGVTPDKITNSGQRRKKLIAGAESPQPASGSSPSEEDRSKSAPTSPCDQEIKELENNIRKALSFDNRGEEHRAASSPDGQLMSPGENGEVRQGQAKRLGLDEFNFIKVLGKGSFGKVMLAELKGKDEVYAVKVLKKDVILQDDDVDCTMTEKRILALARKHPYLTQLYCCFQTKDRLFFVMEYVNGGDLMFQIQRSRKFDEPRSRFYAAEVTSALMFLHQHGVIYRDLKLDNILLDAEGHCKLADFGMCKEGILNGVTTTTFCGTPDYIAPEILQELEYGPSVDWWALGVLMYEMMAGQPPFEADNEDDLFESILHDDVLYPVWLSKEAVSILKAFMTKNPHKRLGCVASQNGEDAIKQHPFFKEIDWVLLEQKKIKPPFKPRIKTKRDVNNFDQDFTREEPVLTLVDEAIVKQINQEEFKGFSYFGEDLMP
Protocol: (§1) FIG. 1 illustrates, inter alia, the level of PKCε in the blood of a human subject receiving 25 μg/m^2 of bryostatin as a single weekly dose for three consecutive weeks followed by cessation of dosing for one week and then two additional weeks of dosing at 25 μg/m^2.
(§2) FIG. 1 illustrates early results of a compassionate use (CU) study involving human advanced AD patients. […] The administration comprised three consecutive weeks of dosing followed by cessation for one week and then two additional weeks of dosing. Standard psychometric tests were used to measure cognitive functions and behaviors. The study also evaluated the relationship between the level of bryostatin's target, PKC epsilon, in the blood and the cognitive measurements.
(§3) Observed improvements included restored speech and word recognition, restored swallowing, lowered or prevented hallucinations, and improved complex motor functions. […] For example, the observed behavioral improvements included restoration of speech and word recognition, restoration of swallowing, disappearance of hallucinations, return of complex motor activity, including swimming, billiards, conversational interactions, and orientation in time and space.

advanced AD patients = experiment: Compassionate use study: cognitive function and behavior (MMSE, ADL-siv); type: in vivo, human
Protocol: as §1, §2, §3
The decline closely tracked the decline in PCK-ε levels, as illustrated in FIG. 1. The observed decline was due to a well-known phenomenon that follows PKC activation called “downregulation”. Sustained clinical improvements in these patients with advanced AD were mitigated by the downregulation of the bryostatin target, PKC-ε. From these preliminary observations the inventors hypothesized that an intermittent dosing regimen of bryostatin was more suitable for maintaining cognitive benefits in AD patients.

[1] = advanced AD patients, weekly dose of 25 μg/m^2, three consecutive weeks

Structure (SMILES): CCC/C=C/C=C/C(=O)O[C@H]1/C(=C/C(=O)OC)C[C@H]2C[C@H]([C@@H](C)O)OC(=O)C[C@H](O)C[C@@H]3C[C@H](OC(C)=O)C(C)(C)[C@](O)(C[C@@H]4C/C(=C/C(=O)OC)C[C@H](/C=C/C(C)(C)[C@]1(O)O2)O4)O3 [Bryostatin-1]
- amounts of PSD-95 (PSD-95; mice, 25 μg/m^2 i.v. once per week, three weeks): higher amounts
- PSD-95 (% of Control) (PSD-95; cage 7: 10 μg/m^2 i.v. once weekly, 6 weeks): 108.176 % of Control
- PSD-95 (% of Control) (PSD-95; cage 17: 15 μg/m^2 i.v. once weekly, 3 weeks): 126.969 % of Control
- PSD-95 (% of Control) (PSD-95; cage 21: 25 μg/m^2 i.v., 1 week): 99.453 % of Control
- PSD-95 (% of Control) (PSD-95; cage 23: 25 μg/m^2 i.v. once weekly, 2 weeks): 107.570 % of Control
- PSD-95 (% of Control) (PSD-95; cage 25: 25 μg/m^2 i.v. once weekly, 3 weeks): 171.203 % of Control
- total PKC-ε levels (PKC-ε): increased
- maintenance of cognitive benefits (advanced AD patients; additional bryostatin dosing in weeks 5, 6 and 8-13): failed to maintain the observed cognitive benefits
- Activities of Daily Living-Severe Impairment Version (ADL-siv) (advanced AD patients; [1]): improvements
- Mini-Mental State Examination (MMSE) score (advanced AD patients; [1]): improvements
